Data from ChEMBL document CHEMBL4011659, “Combining Elements from Two Antagonists of Formyl Peptide Receptor 2 Generates More Potent Peptidomimetic Antagonists” (J Med Chem, 2017).
Calls of active or inactive are those of the source. The calls are words filed in the database; no cut-off is given here. Peptide text beside a SMILES is read from it. * marks the point of attachment. RhodamineB = CCN(CC)c1ccc2c(-c3ccccc3C(=O)*)c3ccc(=[N+](CC)CC)cc-3oc2c1

Assays:
[1] = target: T1, fMet-Leu-Phe receptor (Homo sapiens) (UniProt P21462); assay: Antagonist activity at FPR1 in human peripheral blood polymorphonuclear neutrophils assessed as inhibition of fMLF-induced ROS production at <500 nM preincubated for 5 mins followed fMLF stimulation by isoluminol/HRP-based chemiluminescence assay
T1 sequence (whole entry): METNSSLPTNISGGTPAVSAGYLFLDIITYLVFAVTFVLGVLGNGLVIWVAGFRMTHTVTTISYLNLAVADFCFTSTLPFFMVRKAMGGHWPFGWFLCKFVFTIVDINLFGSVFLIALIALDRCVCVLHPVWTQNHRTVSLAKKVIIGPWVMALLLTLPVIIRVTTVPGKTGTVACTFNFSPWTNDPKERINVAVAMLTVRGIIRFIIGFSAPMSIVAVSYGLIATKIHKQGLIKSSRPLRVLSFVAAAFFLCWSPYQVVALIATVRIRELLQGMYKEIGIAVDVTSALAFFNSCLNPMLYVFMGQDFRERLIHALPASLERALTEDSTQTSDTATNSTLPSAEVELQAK

Neutrophil = assay: Inhibition of PMA-induced superoxide production in human peripheral blood polymorphonuclear neutrophils at 500 nM preincubated for 5 mins followed PMA stimulation by isoluminol/HRP-based chemiluminescence assay; type: functional, cell-based
[2] = target: T2, N-formyl peptide receptor 2 (Homo sapiens, UniProt P25090); assay: (§1) Antagonist activity at FPR2 in human peripheral blood polymorphonuclear neutrophils assessed as inhibition of WKYMVM-peptide induced ROS production preincubated for 5 mins followed WKYMVM-peptide stimulation by isoluminol/HRP-based chemiluminescence assay
T2 sequence (P25090 whole entry): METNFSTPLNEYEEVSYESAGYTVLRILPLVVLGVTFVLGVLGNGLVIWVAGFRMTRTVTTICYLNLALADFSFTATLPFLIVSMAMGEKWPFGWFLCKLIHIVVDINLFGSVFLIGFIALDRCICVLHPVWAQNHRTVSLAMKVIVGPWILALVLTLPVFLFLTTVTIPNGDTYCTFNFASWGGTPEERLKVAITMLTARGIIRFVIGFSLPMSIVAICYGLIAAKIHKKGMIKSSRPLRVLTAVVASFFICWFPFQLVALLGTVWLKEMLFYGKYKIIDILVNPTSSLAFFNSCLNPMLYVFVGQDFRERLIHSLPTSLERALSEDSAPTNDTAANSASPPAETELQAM

[3] = target: T1, fMet-Leu-Phe receptor (Homo sapiens); assay: Antagonist activity at FPR1 in human peripheral blood polymorphonuclear neutrophils assessed as inhibition of fMLF-induced ROS production at >= 1 uM preincubated for 5 mins followed by fMLF stimulation by isoluminol/HRP-based chemiluminescence assay
[4] = target: T3, N-formyl peptide receptor 2 (Homo sapiens) (UniProt P25090); assay: Antagonist activity at FPR2 in human peripheral blood polymorphonuclear neutrophils assessed as inhibition of WKYMVM-peptide induced ROS production at <500 nM preincubated for 5 mins followed WKYMVM-peptide stimulation by isoluminol/HRP-based chemiluminescence assay
T3 sequence (whole entry): T2 sequence (P25090 whole entry)

[5] = target: T1, fMet-Leu-Phe receptor (Homo sapiens); assay: Antagonist activity at FPR1 in human peripheral blood polymorphonuclear neutrophils assessed as inhibition of fMLF-induced ROS production at >= 500 nM preincubated for 5 mins followed fMLF stimulation by isoluminol/HRP-based chemiluminescence assay
[6] = target: T3, N-formyl peptide receptor 2 (Homo sapiens); assay: as §1
[7] = target: T2, N-formyl peptide receptor 2; assay: Antagonist activity at FPR2 in human peripheral blood polymorphonuclear neutrophils assessed as inhibition of WKYMVM-peptide induced ROS production preincubated for 5 mins followed WKYMVM-peptide stimulation measured up to 20 mins by isoluminol-based chemiluminescence assay
[8] = target: T3, N-formyl peptide receptor 2 (Homo sapiens); details: 100 nM
Description: Displacement of Cy5-WKYMVM from FPR2 in human peripheral blood polymorphonuclear neutrophils at 100 nM preincubated for 10 mins followed by Cy5-WKYMVM addition measured after 60 mins by fluorescence based assay

[9] = target: T3, N-formyl peptide receptor 2 (Homo sapiens); details: 100 nM; remark: listed apart in the source
Description: Antagonist activity at FPR2 in human peripheral blood polymorphonuclear neutrophils assessed as inhibition of F2Pal10-induced ROS production at 100 nM preincubated for 5 mins followed F2Pal10 stimulation by isoluminol/HRP-based chemiluminescence assay

[10] = target: T1, fMet-Leu-Phe receptor (Homo sapiens); assay: (§2) Antagonist activity at FPR1 in human peripheral blood polymorphonuclear neutrophils assessed as inhibition of fMIFL-induced ROS production at 500 nM preincubated for 5 mins followed fMIFL stimulation by isoluminol/HRP-based chemiluminescence assay
[11] = target: T3, N-formyl peptide receptor 2 (Homo sapiens); details: 100 nM; remark: listed apart in the source
Description: Antagonist activity at FPR2 in human peripheral blood polymorphonuclear neutrophils assessed as inhibition of WKYMVM-induced ROS production at 100 nM preincubated for 5 mins followed Lau-Aoc-(Lys-betaNphe)6-NH2 stimulation by isoluminol/HRP-based chemiluminescence assay

[12] = target: T3, N-formyl peptide receptor 2 (Homo sapiens); details: 100 nM; remark: listed apart in the source
Description: Antagonist activity at FPR2 in human peripheral blood polymorphonuclear neutrophils assessed as inhibition of Lau-Aoc-(Lys-betaNphe)6-NH2-induced ROS production at 100 nM preincubated for 5 mins followed Lau-Aoc-(Lys-betaNphe)6-NH2 stimulation by isoluminol/HRP-based chemiluminescence assay

[13] = target: T3, N-formyl peptide receptor 2 (Homo sapiens); details: 100 nM; remark: listed apart in the source
Description: Antagonist activity at FPR2 in human peripheral blood polymorphonuclear neutrophils assessed as inhibition of PSMalpha2-peptide induced ROS production at 100 nM preincubated for 5 mins followed PSMalpha2-peptide stimulation by isoluminol/HRP-based chemiluminescence assay

[14] = target: T1, fMet-Leu-Phe receptor (Homo sapiens); assay: as §2, with “N-(4-chlorophenyl)-N'-(5-isopropyl-1-methyl-3-oxo-2-phenyl-2,3-dihydro-1H-pyrazol-4-yl)urea-induced” for “fMIFL-induced”, “N-(4-chlorophenyl)-N'-(5-isopropyl-1-methyl-3-oxo-2-phenyl-2,3-dihydro-1H-pyrazol-4-yl)urea” for “fMIFL”
[15] = target: T1, fMet-Leu-Phe receptor (Homo sapiens); assay: Antagonist activity at FPR1 in human peripheral blood polymorphonuclear neutrophils assessed as inhibition of fMLF-induced ROS production at 500 nM preincubated for 5 mins followed fMIFL stimulation by isoluminol/HRP-based chemiluminescence assay

Compound: CCN(CC)c1ccc2c(-c3ccccc3C(=O)N[C@@H](CCCCN)C(=O)N(CCC(=O)N[C@@H](CCCCN)C(=O)N(CCC(=O)N[C@@H](CCCCN)C(=O)N(CCC(=O)N[C@@H](CCCCN)C(=O)N(CCC(=O)N[C@@H](CCCCN)C(=O)N(CCC(=O)N[C@@H](CCCCN)C(=O)N(CCC(N)=O)Cc3ccc(F)cc3)Cc3ccc(F)cc3)Cc3ccc(F)cc3)Cc3ccc(F)cc3)Cc3ccc(F)cc3)Cc3ccc(F)cc3)c3ccc(=[N+](CC)CC)cc-3oc2c1
- inhibition [1]: inactive
- inhibition (Neutrophil): Active
- IC50 [2]: 10 nM

Compound: CCCCCCCCCCCCCCCC(=O)N[C@H](CCC(N)=O)C(=O)N[C@H](CCCNC(=N)N)C(=O)N[C@H](CC(C)C)C(=O)N[C@H](Cc1ccccc1)C(=O)N[C@H](CCC(N)=O)C(=O)N[C@@H](C(=O)N[C@H](CCCCN)C(=O)NCC(=O)N[C@H](CCCNC(=N)N)C(=O)N[C@H](CCCNC(=N)N)C(N)=O)C(C)C
- IC50 [2]: 1120 nM
- inhibition [3]: Active

Compound: CCCCCCCCCCCCCCCC(=O)N[C@@H](CCC(N)=O)C(=O)N[C@@H](CCCNC(=N)N)C(=O)N[C@@H](CC(C)C)C(=O)N[C@@H](Cc1ccccc1)C(=O)N[C@@H](CCC(N)=O)C(=O)NC(C(=O)N[C@@H](CCCCN)C(=O)NCC(=O)N[C@@H](CCCNC(=N)N)C(=O)N[C@@H](CCCNC(=N)N)C(N)=O)C(C)C (single isomer, unassigned)
- IC50 [2]: 900 nM
- inhibition [3]: Active

Compound: CCN(CC)c1ccc2c(-c3ccccc3C(=O)N[C@H](CCC(N)=O)C(=O)N[C@H](CCCNC(=N)N)C(=O)N[C@H](CC(C)C)C(=O)N[C@H](Cc3ccccc3)C(=O)N[C@H](CCC(N)=O)C(=O)N[C@@H](C(=O)N[C@H](CCCCN)C(=O)NCC(=O)N[C@H](CCCNC(=N)N)C(=O)N[C@H](CCCNC(=N)N)C(N)=O)C(C)C)c3ccc(=[N+](CC)CC)cc-3oc2c1
- inhibition [1]: inactive
- inhibition [4]: inactive

Compound: CCN(CC)c1ccc2c(-c3ccccc3C(=O)N[C@@H](CCCCN)C(=O)N(CCC(=O)N[C@@H](CCCCN)C(=O)N(CCC(=O)N[C@@H](CCCCN)C(=O)N(CCC(=O)N[C@@H](CCCCN)C(=O)N(CCC(=O)N[C@@H](CCCCN)C(=O)N(CCC(=O)N[C@@H](CCCCN)C(=O)N(CCC(N)=O)Cc3ccc(C(F)(F)F)cc3)Cc3ccc(C(F)(F)F)cc3)Cc3ccc(C(F)(F)F)cc3)Cc3ccc(C(F)(F)F)cc3)Cc3ccc(C(F)(F)F)cc3)Cc3ccc(C(F)(F)F)cc3)c3ccc(=[N+](CC)CC)cc-3oc2c1
- inhibition [5]: Active
- inhibition (Neutrophil): Active
- IC50 [2]: 94 nM

Compound: CCN(CC)c1ccc2c(-c3ccccc3C(=O)N[C@@H](CCCCN)C(=O)N(CCC(=O)N[C@@H](CCCCN)C(=O)N(CCC(=O)N[C@@H](CCCCN)C(=O)N(CCC(=O)N[C@@H](CCCCN)C(=O)N(CCC(=O)N[C@@H](CCCCN)C(=O)N(CCC(=O)N[C@@H](CCCCN)C(=O)N(CCC(N)=O)[C@@H](C)c3ccccc3)[C@@H](C)c3ccccc3)[C@@H](C)c3ccccc3)[C@@H](C)c3ccccc3)[C@@H](C)c3ccccc3)[C@@H](C)c3ccccc3)c3ccc(=[N+](CC)CC)cc-3oc2c1
- inhibition [1]: inactive
- IC50 [2]: 34 nM

Compound: CCN(CC)c1ccc2c(-c3ccccc3C(=O)N[C@@H](CCC(N)=O)C(=O)N[C@@H](CCCNC(=N)N)C(=O)N[C@@H](CC(C)C)C(=O)N[C@@H](Cc3ccccc3)C(=O)N[C@@H](CCC(N)=O)C(=O)N[C@@H](C(=O)N[C@@H](CCCCN)C(=O)NCC(=O)N[C@@H](CCCNC(=N)N)C(=O)N[C@@H](CCCNC(=N)N)C(N)=O)C(C)C)c3ccc(=[N+](CC)CC)cc-3oc2c1
- inhibition [6]: Active

Compound: CCCCCCCCCCCCCCCC(=O)N[C@@H](CCCCN)C(=O)N(CCC(=O)N[C@@H](CCCCN)C(=O)N(CCC(=O)N[C@@H](CCCCN)C(=O)N(CCC(=O)N[C@@H](CCCCN)C(=O)N(CCC(=O)N[C@@H](CCCCN)C(=O)N(CCC(=O)N[C@@H](CCCCN)C(=O)N(CCC(N)=O)[C@@H](C)c1ccccc1)[C@@H](C)c1ccccc1)[C@@H](C)c1ccccc1)[C@@H](C)c1ccccc1)[C@@H](C)c1ccccc1)[C@@H](C)c1ccccc1
- IC50 [7]: 41 nM
- inhibition [1]: inactive

Compound: CCN(CC)c1ccc2c(-c3ccccc3C(=O)N[C@@H](CCCCN)C(=O)N[C@@H](Cc3ccccc3)C(=O)N[C@@H](CCCCN)C(=O)N[C@@H](Cc3ccccc3)C(=O)N[C@@H](CCCCN)C(=O)N[C@@H](Cc3ccccc3)C(=O)N[C@@H](CCCCN)C(=O)N[C@@H](Cc3ccccc3)C(=O)N[C@@H](CCCCN)C(=O)N[C@@H](Cc3ccccc3)C(=O)N[C@@H](CCCCN)C(=O)N[C@@H](Cc3ccccc3)C(N)=O)c3ccc(=[N+](CC)CC)cc-3oc2c1 (RhodamineB-KFKFKFKFKFKF-NH2)
- inhibition [1]: inactive
- inhibition [4]: inactive

Compound: CCN(CC)c1ccc2c(-c3ccccc3C(=O)N[C@@H](CCC(N)=O)C(=O)N[C@@H](CCCNC(=N)N)C(=O)N[C@@H](CC(C)C)C(=O)N[C@@H](Cc3ccccc3)C(=O)N[C@@H](CCC(N)=O)C(=O)NC(C(=O)N[C@@H](CCCCN)C(=O)NCC(=O)N[C@@H](CCCNC(=N)N)C(=O)N[C@@H](CCCNC(=N)N)C(=O)O)C(C)C)c3ccc(=[N+](CC)CC)cc-3oc2c1 (single isomer, unassigned)
- IC50 [7]: 60 nM
- inhibition [1]: inactive

Compound: CCN(CC)c1ccc2c(-c3ccccc3C(=O)N[C@@H](CCCCN)C(=O)N(CCC(=O)N[C@@H](CCCCN)C(=O)N(CCC(=O)N[C@@H](CCCCN)C(=O)N(CCC(=O)N[C@@H](CCCCN)C(=O)N(CCC(N)=O)Cc3ccccc3)Cc3ccccc3)Cc3ccccc3)Cc3ccccc3)c3ccc(=[N+](CC)CC)cc-3oc2c1
- inhibition [1]: inactive
- IC50 [2]: 13 nM

Compound: CCN(CC)c1ccc2c(-c3ccccc3C(=O)N[C@@H](CCCCN)C(=O)N(CCC(=O)N[C@@H](CCCCN)C(=O)N(CCC(=O)N[C@@H](CCCCN)C(=O)N(CCC(=O)N[C@@H](CCCCN)C(=O)N(CCC(=O)N[C@@H](CCCCN)C(=O)N(CCC(=O)N[C@@H](CCCCN)C(=O)N(CCC(N)=O)Cc3ccccc3)Cc3ccccc3)Cc3ccccc3)Cc3ccccc3)Cc3ccccc3)Cc3ccccc3)c3ccc(=[N+](CC)CC)cc-3oc2c1
- inhibition [8]: Active
- inhibition [9]: Active
- inhibition [10]: inactive
- inhibition [11]: Active
- inhibition [1]: inactive
- inhibition [12]: Active
- inhibition [13]: Active
- inhibition [14]: inactive
- inhibition [15]: inactive
- IC50 [2]: 15 nM
